From article PMC4376353 (Angewandte Chemie (International ed. in English), 2015)

Key:
LanGT2 [1] = molecular target: T1, LanGT2 (Streptomyces cyanogenus, UniProt Q9ZGC0); experiment: X-ray crystal structure; format: binding; details: nucleotide-sugar site; TDP-olivose had broken down, product TDP bound
T1 sequence (Q9ZGC0 1-373): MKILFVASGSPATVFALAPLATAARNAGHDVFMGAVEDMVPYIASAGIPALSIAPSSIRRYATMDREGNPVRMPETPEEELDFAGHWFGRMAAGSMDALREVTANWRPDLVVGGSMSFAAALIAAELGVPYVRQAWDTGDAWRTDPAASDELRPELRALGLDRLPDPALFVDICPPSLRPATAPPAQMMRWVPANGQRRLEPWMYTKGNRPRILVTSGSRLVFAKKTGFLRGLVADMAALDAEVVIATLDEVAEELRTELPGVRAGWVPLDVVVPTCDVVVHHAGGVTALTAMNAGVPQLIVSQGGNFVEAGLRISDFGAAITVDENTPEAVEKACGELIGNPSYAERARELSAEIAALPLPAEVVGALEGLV

LanGT2 [2] = molecular target: T1, LanGT2; experiment: X-ray crystal structure; format: binding; details: non-hydrolyzable substrate analogue; nucleotide-sugar site; 1.85 Å

Compound | X-ray crystal structure (crystals treated with TDP-olivose) (LanGT2 [1]) | X-ray crystal structure (crystal soaking) (LanGT2 [2])
Cc1cn([C@H]2C[C@H](O)[C@@H](COP(=O)(O)OP(=O)(O)O)O2)c(=O)[nH]c1=O [TDP] | thus resulting in structures that invariably only had the product TDP bound | –
Cc1cn([C@H]2C[C@H](O)[C@@H](COP(=O)(O)OP(=O)(O)O[C@@H]3C[C@@H](O)[C@H](O)[C@@H](C)C3)O2)c(=O)[nH]c1=O [compound 8, TDP-carba-D-olivose] | – | LanGT2 crystals were soaked with the synthetic TDP-carba-D-olivose (TcO)
